Data: ChEMBL document CHEMBL5370643, “Discovery of MK-1468: A Potent, Kinome-Selective, Brain-Penetrant Amidoisoquinoline LRRK2 Inhibitor for the Potential Treatment of Parkinson's Disease” (J Med Chem, 2023)

Experiments:
[1] = target: Leucine-rich repeat serine/threonine-protein kinase 2 (Homo sapiens, UniProt Q5S007, G2019S); assay: Inhibition of recombinant N-terminal GST-fused LRRK2 […] mutant (970 to 2527 residues) (unknown origin) using LRRKtide peptide as substrate assessed as inhibition of substrate phosphorylation preincubated with compound for 15 mins followed by substrate addition and measured after 90 mins in presence of ATP by TR-FRET assay
[2] = Cardiotoxicity in guinea pig assessed as increase in QRS interval at 20 to 50 mg/kg, iv administered continuously for 20 min by ECG analysis; type: toxicity, organism-based, Cavia porcellus; details: in vivo, dose 20-50 mg/kg
[3] = Intrinsic clearance in Beagle dog at […], iv measured after 24 hrs by LC-MS/MS analysis; type: ADME, organism-based, Canis lupus familiaris; details: in vivo, dose 0.25 mg/kg
Nav1.5 = Nav1.5 (Homo sapiens, UniProt Q14524); assay: (§1) Inhibition of human Nav1.5 expressed in HEK293 cells by QPatch voltage clamp assay; type: cell-based; details: human, HEK293 cells expressing human Nav1.5
[4] = target: Sodium channel protein type 5 subunit alpha (Homo sapiens, UniProt Q14524); assay: as §1; type: cell-based
[5] = Lipophilicity, logD of compound at pH 7 by HT-HPLC/DAD analysis; type: physicochemical; details: buffer
[6] = target: MAP/microtubule affinity-regulating kinase 3 (Homo sapiens, UniProt P27448); assay: Inhibition of recombinant human full length MARK3 expressed in insect cells using CHKtide as substrate preincubated with compound for 15 mins followed by substrate addition and measured after 15 mins in the presence of ATP by scintillation based radiometric LeadHunter assay
[7] = target: KCNQ1/KCNE1 (IKs, Kv7.1/MinK) (Homo sapiens, UniProt P15382+P51787); assay: Inhibition of human KCNQ1/KCNE1 expressed in HEK293 cells at 30 uM by QPatch voltage clamp assay relative to control; type: cell-based; details: HEK293 cells expressing human KCNQ1/KCNE1
[8] = Oral bioavailability in rhesus monkey at 2 mg/kg measured after 24 hrs by LC-MS/MS analysis; type: ADME, organism-based, Macaca mulatta; details: in vivo
[9] = target: Voltage-gated inwardly rectifying potassium channel KCNH2 (Homo sapiens, UniProt Q12809); assay: (§2) Inhibition of hERG expressed in CHO cells by QPatch voltage clamp assay
hERG = hERG (Homo sapiens, UniProt Q12809); assay: as §2; details: human, CHO cells expressing hERG
[10] = MRT in Wistar-Han rat at 2 mg/kg, iv measured after 24 hrs by LC-MS/MS analysis; type: ADME, organism-based; details: in vivo
[11] = Intrinsic clearance in Wistar-Han rat at 2 mg/kg, iv measured after 24 hrs by LC-MS/MS analysis; type: ADME, organism-based; details: in vivo
[12] = Intrinsic clearance in rhesus monkey at 1 mg/kg, iv measured after 24 hrs by LC-MS/MS analysis; type: ADME, organism-based, Macaca mulatta; details: in vivo
rat Mdrl1 P-gp = assay: Efflux ratio of apparent permeability across basolateral to apical over apical to basolateral side in MDCK cells transfected with rat Mdrl1 P-gp incubated for 3 hrs by LC-MS/MS analysis; details: dog, MDCK-MDR1
[13] = Total clearance in rhesus monkey at 1 mg/kg, iv measured after 24 hrs by LC-MS/MS analysis; type: ADME, organism-based, Macaca mulatta; details: in vivo
[14] = AUC in Wistar-Han rat at 50 mg/kg by LC-MS/MS analysis; type: ADME, organism-based; design: dose 50 mg/kg; details: in vivo
[15] = Toxicity in Wistar-Han rat assessed as tolerance at 50 to 300 mg/kg, qd; type: organism-based; details: in vivo, dose 50-300 mg/kg
[16] = Unbound brain-to-plasma concentration ratio in iv dosed Wistar-Han rat administered as cassette dose by LC-MS/MS analysis; type: ADME, organism-based; details: read-out: K(p,uu,brain)
[17] = Drug metabolism in dog assessed as amide hydrolysis mediated metabolite formation by MetID analysis; type: ADME, Canis lupus familiaris
[18] = MRT in Beagle dog at […], iv measured after 24 hrs by LC-MS/MS analysis; type: ADME, organism-based, Canis lupus familiaris; details: in vivo, dose 0.25 mg/kg
[19] = MRT in rhesus monkey at 1 mg/kg, iv measured after 24 hrs by LC-MS/MS analysis; type: ADME, organism-based, Macaca mulatta; details: in vivo
[20] = Oral bioavailability in Wistar-Han rat at 5 mg/kg measured after 24 hrs by LC-MS/MS analysis; type: ADME, organism-based; details: in vivo
mouse BCRP = assay: Efflux ratio of apparent permeability across basolateral to apical over apical to basolateral side in MDCK-II cells transfected with mouse BCRP incubated for 3 hrs by LC-MS/MS analysis; details: dog
[21] = Total clearance in Beagle dog at […], iv measured after 24 hrs by LC-MS/MS analysis; type: ADME, organism-based, Canis lupus familiaris; details: in vivo, dose 0.25 mg/kg
[22] = target: Voltage-dependent L-type calcium channel subunit alpha-1C (Homo sapiens, UniProt Q13936); assay: Inhibition of human Cav1.2
[23] = Cardiotoxicity in guinea pig assessed as increase in QTc interval at 20 to 50 mg/kg, iv administered continuously for 20 min by ECG analysis; type: toxicity, organism-based, Cavia porcellus; details: in vivo, dose 20-50 mg/kg
[24] = Cardiotoxicity in guinea pig assessed as increase in PR interval at 20 to 50 mg/kg, iv administered continuously for 20 min by ECG analysis; type: toxicity, organism-based, Cavia porcellus; details: in vivo, dose 20-50 mg/kg
[25] = Oral bioavailability in Beagle dog at 1 mg/kg measured after 24 hrs by LC-MS/MS analysis; type: ADME, organism-based, Canis lupus familiaris; details: in vivo
rat Mdr1a P-gp = assay: Apparent permeability across apical to basolateral side in LLC-PK1 cells transfected with rat Mdr1a P-gp incubated for 3 hrs by LC-MS/MS analysis; details: pig
[26] = target: Leucine-rich repeat serine/threonine-protein kinase 2 (Homo sapiens) (UniProt Q5S007); assay: Inhibition of LRRK2 in human PBMC using LRRKtide peptide as substrate assessed as Ser935 dephosphorylation preincubated with compound for 15 mins followed by substrate addition and measured after 90 mins in presence of ATP by TR-FRET assay; type: cell-based; details: time 105.0 min
[27] = AUC in Wistar-Han rat at 300 mg/kg by LC-MS/MS analysis; type: ADME, organism-based; design: dose 300 mg/kg; details: in vivo
[28] = Total clearance in Wistar-Han rat at 2 mg/kg, iv measured after 24 hrs by LC-MS/MS analysis; type: ADME, organism-based; details: in vivo

Sodium channel protein type 5 subunit alpha, sequence (Q14524 whole entry): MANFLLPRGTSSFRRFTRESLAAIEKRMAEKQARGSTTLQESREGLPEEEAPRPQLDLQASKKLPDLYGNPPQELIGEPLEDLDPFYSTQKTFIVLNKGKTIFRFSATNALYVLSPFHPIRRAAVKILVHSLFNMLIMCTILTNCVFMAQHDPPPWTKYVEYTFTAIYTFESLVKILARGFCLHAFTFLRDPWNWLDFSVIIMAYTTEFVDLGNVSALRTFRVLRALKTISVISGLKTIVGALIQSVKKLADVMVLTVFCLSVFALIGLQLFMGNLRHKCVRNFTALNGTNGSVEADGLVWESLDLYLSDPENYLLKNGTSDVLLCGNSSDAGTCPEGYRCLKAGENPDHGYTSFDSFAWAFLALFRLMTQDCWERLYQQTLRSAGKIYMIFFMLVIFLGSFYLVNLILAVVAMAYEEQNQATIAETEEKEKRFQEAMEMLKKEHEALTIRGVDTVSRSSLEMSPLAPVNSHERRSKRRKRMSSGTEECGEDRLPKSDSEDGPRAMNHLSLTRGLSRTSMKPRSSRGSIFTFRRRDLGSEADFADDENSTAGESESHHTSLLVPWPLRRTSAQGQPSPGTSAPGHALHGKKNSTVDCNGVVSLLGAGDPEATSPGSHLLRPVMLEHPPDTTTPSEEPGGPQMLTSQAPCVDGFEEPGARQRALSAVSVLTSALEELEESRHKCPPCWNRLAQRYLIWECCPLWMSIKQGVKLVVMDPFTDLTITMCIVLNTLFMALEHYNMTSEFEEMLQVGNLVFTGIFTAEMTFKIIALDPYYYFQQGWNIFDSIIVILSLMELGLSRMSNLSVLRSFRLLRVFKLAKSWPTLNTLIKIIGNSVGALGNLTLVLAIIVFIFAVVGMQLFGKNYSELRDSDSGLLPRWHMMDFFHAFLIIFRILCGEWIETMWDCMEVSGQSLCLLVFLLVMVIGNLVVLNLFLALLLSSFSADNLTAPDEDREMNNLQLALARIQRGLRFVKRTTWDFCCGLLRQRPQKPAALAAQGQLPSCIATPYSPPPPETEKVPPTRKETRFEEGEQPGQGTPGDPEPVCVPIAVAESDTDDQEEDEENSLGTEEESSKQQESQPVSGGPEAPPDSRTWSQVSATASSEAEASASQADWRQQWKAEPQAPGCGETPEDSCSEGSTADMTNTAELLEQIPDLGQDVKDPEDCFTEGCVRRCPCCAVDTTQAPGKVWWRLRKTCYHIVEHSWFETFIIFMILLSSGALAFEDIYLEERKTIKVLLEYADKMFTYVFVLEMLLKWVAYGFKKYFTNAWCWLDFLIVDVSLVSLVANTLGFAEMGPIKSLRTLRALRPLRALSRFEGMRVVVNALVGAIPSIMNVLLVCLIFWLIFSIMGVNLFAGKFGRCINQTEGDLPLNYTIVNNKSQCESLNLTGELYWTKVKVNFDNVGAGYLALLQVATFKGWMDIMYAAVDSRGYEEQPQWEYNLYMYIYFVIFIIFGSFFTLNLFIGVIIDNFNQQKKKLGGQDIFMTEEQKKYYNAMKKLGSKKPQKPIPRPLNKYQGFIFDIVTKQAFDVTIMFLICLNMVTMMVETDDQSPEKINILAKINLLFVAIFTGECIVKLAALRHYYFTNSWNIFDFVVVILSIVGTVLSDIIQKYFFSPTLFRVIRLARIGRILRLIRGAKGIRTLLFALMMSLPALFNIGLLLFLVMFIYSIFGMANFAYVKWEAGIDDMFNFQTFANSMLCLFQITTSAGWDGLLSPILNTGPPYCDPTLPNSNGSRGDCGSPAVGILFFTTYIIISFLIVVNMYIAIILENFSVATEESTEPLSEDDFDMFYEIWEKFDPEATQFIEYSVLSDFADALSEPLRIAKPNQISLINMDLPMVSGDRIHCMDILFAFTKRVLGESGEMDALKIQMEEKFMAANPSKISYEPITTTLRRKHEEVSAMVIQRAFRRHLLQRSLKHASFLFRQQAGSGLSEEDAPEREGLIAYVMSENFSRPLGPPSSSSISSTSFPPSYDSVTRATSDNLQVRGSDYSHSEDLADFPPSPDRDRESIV
Nav1.5, sequence (Q14524 whole entry): as above
KCNQ1/KCNE1 (IKs, Kv7.1/MinK), sequence (P51787 whole entry): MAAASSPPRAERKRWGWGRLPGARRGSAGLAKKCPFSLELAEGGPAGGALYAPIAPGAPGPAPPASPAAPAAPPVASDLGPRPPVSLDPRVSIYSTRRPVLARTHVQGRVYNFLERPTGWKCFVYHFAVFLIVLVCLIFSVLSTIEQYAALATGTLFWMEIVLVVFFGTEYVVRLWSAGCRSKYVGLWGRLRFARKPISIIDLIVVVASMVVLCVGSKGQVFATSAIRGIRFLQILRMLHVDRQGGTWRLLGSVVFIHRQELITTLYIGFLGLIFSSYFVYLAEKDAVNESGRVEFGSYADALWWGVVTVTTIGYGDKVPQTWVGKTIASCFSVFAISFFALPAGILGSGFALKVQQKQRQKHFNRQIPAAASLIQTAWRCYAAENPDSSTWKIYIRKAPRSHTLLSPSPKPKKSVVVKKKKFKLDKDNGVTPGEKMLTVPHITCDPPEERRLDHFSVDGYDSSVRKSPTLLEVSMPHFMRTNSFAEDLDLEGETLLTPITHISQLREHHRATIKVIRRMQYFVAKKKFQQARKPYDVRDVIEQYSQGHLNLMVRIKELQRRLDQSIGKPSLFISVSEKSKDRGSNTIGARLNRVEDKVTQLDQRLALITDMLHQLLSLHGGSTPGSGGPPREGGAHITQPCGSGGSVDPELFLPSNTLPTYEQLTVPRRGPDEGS

Structure (SMILES): C[C@@]1(N2CCC(c3cc4cc(NC(=O)C5CC56CC6)ncc4cc3Cl)CC2)COC[C@@H]1O (stereo partly drawn)
- IC50 [1]: 0.003 µM
- Activity [2]: Toxic
- CL [3]: 341 mL/min/kg
- IC20 (Nav1.5): 10 µM
- IC50 [4]: 28 µM
- logD [5]: 3
- IC50 [6]: 0.029 µM
- inhibition at 30 µM [7]: 15%
- bioavailability [8]: 21%
- IC50 [9]: 3.7 µM
- IC20 (hERG): 1.3 µM
- MRT [10]: 9 h
- CL [11]: 271 mL/min/kg
- CL [12]: 341 mL/min/kg
- efflux ratio at 3 h (rat Mdrl1 P-gp): 1.5
- clearance [13]: 13 mL/min/kg
- AUC [14]: 111 µM·h
- Activity [15]: Non-Toxic
- Kp uu [16]: 0.6
- Drug metabolism [17]: Metabolite_Notdetected
- MRT at 24 h [18]: 33 h
- MRT [19]: 10 h
- bioavailability [20]: 100%
- efflux ratio at 3 h (mouse BCRP): 1.1
- clearance at 24 h [21]: 9 mL/min/kg
- inhibition (INH) [22]: Not Active
- Activity [23]: Toxic
- Activity [24]: Toxic
- bioavailability [25]: 81%
- Papp A→B at 3 h (rat Mdr1a P-gp): 30 ×10⁻⁶ cm/s
- fIC50 [26]: 2.8 nM
- AUC [27]: 458 µM·h
- clearance [28]: 11 mL/min/kg
